Experimental data taken from PMC5615103 (Toxicology Reports, 2017).
Entries after “also recorded” stand apart in the source; their conditions may differ. Like-named read-outs stand apart in the source and are kept apart here. Marks after values point to notes of the source that are not given here.

Legend:
[1] = average plasma maximum concentration; format: in vivo, humans; details: human
[2] = human plasma, cited from earlier work
[3] = cited from earlier work; for DILI classification (b) positive or negative for DILI: ref Xu et al. [33]; for iDILI/non-iDILI: selected by literature research, ref [30], [4], [8], [31], [32]; for DILI classification (a) LTKB class: Liver Toxicity Knowledge Base, ref Chen et al. [34]; for FDA status: FDA-approved labels, ref DailyMed
HepG2 cells [4] = experiment: WST-1 dose-response cytotoxicity in HepG2 monoculture; format: cell-based, human; details: for EC80 (concentration at which 80% of the cells are still viable) / EC50: HepG2, 24 h; for EC80 (concentration at which 80% of the cells are still viable): WST-1; for EC50: Homo sapiens
[5] = as above; format: cell-based, human; details: human, HepG2 cells (monoculture)
HepG2 cells [6] = experiment: HepG2 viability; format: cell-based, human; details: 10 ng/mL TNF, 24 h; for synergistic effect (enhanced cellular death) on co-exposure with TNF: HepG2 monoculture, 32 μM TGZ/RGZ, 25 μM TVX/LVX, 125 μM DcL/ASS, 20 μM KC/FC; for change of the TNF-dependent synergistic effect by addition of THP-1 monocytes: co-culture HepG2 + THP-1 monocytes
[7] = WST-1 dose-response cytotoxicity in THP-1 monocytes; format: cell-based, human; details: human, THP-1 monocytes
THP-1 monocytes = experiment: as above; format: cell-based, human; details: for EC50: Homo sapiens, THP-1, 24 h; for EC80 (concentration at which 80% of the cells are still viable): THP-1 monocytes, 24 h, WST-1
HepG2 cells [8] = experiment: HepG2 monoculture, increasing drug concentrations with or without TNF, WST-1; format: cell-based, human; details: 24 h; for TNF-dependent synergistic effect at increasing drug concentrations: with vs without 10 ng/mL TNF
HepG2 cells [9] = experiment: HepG2 viability; format: cell-based, human; details: 3-5 × 10^5 THP-1 monocytes, no stimulus; same concentrations
HepG2 cells [10] = experiment: Morphology of HepG2 cell cultures; format: cell-based, human; details: 24 h; for alterations in the morphology of HepG2 cell cultures: 25 μM TVX or 125 μM DcL + 10 ng/mL TNF
HepG2 cells [11] = experiment: HepG2 viability; format: cell-based, human; details: 1 μg/mL LPS, 48 h; for enhanced cell death in HepG2 cells on co-exposure with LPS: mono- and co-cultures with THP-1 monocytes, 25 μM TVX/LVX, 20 μM KC/FC; for synergy with LPS in co-culture with THP-1 monocytes: co-culture HepG2 + THP-1 monocytes

Row | Structure (SMILES) | Cmax [1] [µM] | DILI classification (b) positive or negative for DILI [3] | iDILI/non-iDILI [3] | EC80 (concentration at which 80% of the cells are still viable) (HepG2 cells [4]) [µM] | EC50 (HepG2 cells [4]) [µM] | synergistic effect (enhanced cellular death) on co-exposure with TNF (HepG2 cells [6]) | EC50 (THP-1 monocytes) [µM] | EC80 (concentration at which 80% of the cells are still viable) (THP-1 monocytes) [µM] | DILI classification (a) LTKB class [3] | influence of higher THP-1 monocyte number on the effect in co-culture (HepG2 cells [9]) | enhanced cell death in HepG2 cells on co-exposure with LPS (HepG2 cells [11]) | FDA status [3] | other results
1 | CC(=O)Oc1ccccc1C(=O)O [ASS, Acetylsalicylic acid] | 552 | negative | Non-iDILI |  |  |  |  |  |  |  |  |  | Cmax ([2]; commonly recommended therapeutic doses, ref Xu et al. [33]): 1.00 µg/mL
2 | O=C(O)Cc1ccccc1Nc1c(Cl)cccc1Cl [DcL, Diclofenac] | 744 | positive |  | 604 | 775 | stronger than in the case of TGZ and KC | 76 | 30 | Most DILI-concern | enhanced by higher numbers of immune cells |  |  | cytotoxicity / metabolic activity at the used concentration (HepG2 cells [4]; HepG2, same concentration as in co-culture experiments, 24 h): no cytotoxicity; also recorded: not affected; viability at 24 h, 125 μM [5]: ~100%; change of the TNF-dependent synergistic effect by addition of THP-1 monocytes (HepG2 cells [6]): compensated in the co-culture system; viability at 24 h, 125 μM [7]: ~30%; doses necessary to elicit enhanced toxicities (onset of synergy with TNF) (HepG2 cells [8]; 10 ng/mL TNF): > 50 µM; synergistic effect when co-exposed with TNF (HepG2 cells [8]; drug 50 μM, 10 ng/mL TNF): not able to induce a synergistic effect; TNF-dependent synergistic effect at increasing drug concentrations (HepG2 cells [8]): stronger than those of TGZ and KC; alterations in the morphology of HepG2 cell cultures (HepG2 cells [10]): pronounced hepatocellular injury; morphology of HepG2 cells (HepG2 cells [10]; selected concentration (125 μM), drug alone): morphological changes
3 | OC(Cn1cncn1)(Cn1cncn1)c1ccc(F)cc1F [FC, Fluconazole] | 882 | positive |  |  |  |  |  |  | Most DILI-concern |  | did not show any relevant effects |  | 
4 | CC(=O)N1CCN(c2ccc(OCC3COC(Cn4ccnc4)(c4ccc(Cl)cc4Cl)O3)cc2)CC1 (centres unmarked) [KC, Ketoconazole] | 794 |  | iDILI | 18 | 24 |  | 12 | 7 | Most DILI-concern | enhanced by higher numbers of immune cells | significantly enhanced cell death | BBW | viability at 24 h, 20 μM [5]: ~80%; change of the TNF-dependent synergistic effect by addition of THP-1 monocytes (HepG2 cells [6]): compensated in the co-culture system; viability at 24 h, 20 μM [7]: ~20%; Cmax ([2]; ref Huang et al. [35]): 4.22** μg/mL; synergy with LPS in co-culture with THP-1 monocytes (HepG2 cells [11]): showed a synergy only in the presence of both
5 | C[C@H]1COc2c(N3CCN(C)CC3)c(F)cc3c(=O)c(C(=O)O)cn1c23 [LVX, Levofloxacin] | 1580 | negative |  |  |  |  |  |  |  |  | did not show any relevant effects |  | 
6 | CN(CCOc1ccc(CC2SC(=O)NC2=O)cc1)c1ccccn1 (centres unmarked) [RGZ, Rosiglitazone] | 104 | negative | Non-iDILI |  |  |  |  |  |  | only negligible effects |  |  | cytotoxicity at 24 h, 32 µM [7]: 10%
7 | Cc1c(C)c2c(c(C)c1O)CCC(C)(COc1ccc(CC3SC(=O)NC3=O)cc1)O2 (centres unmarked) [TGZ, Troglitazone] | 639 | positive | iDILI | 34 | 40 | synergy | 42 | 27 | Most DILI-concern | enhanced at higher THP-1 cell numbers |  | WDN | viability at 24 h, 32 μM [5]: ~85%; viability at 24 h, 32 μM [7]: ~70%
8 | N[C@@H]1[C@H]2CN(c3nc4c(cc3F)c(=O)c(C(=O)O)cn4-c3ccc(F)cc3F)C[C@@H]12 [TVX, Trovafloxacin] | 408 |  | iDILI | 100 | 370 | stronger than in the case of TGZ and KC | 60 | 23 |  |  | significantly enhanced cell death | WDN | viability at 24 h, 25 μM [5]: ~92%; viability at 24 h, 25 μM [7]: ~76%; TNF-dependent synergistic effect at increasing drug concentrations (HepG2 cells [8]): dose-dependently increased; synergy with LPS in the HepG2 monoculture (HepG2 cells [11]; HepG2 monoculture): showed a synergy; synergy with LPS in co-culture with THP-1 monocytes (HepG2 cells [11]): not intensified by immune cells; alterations in the morphology of HepG2 cell cultures (HepG2 cells [10]): pronounced hepatocellular injury
